Data reported in patent US7241760B2, “Heteroaryl-substituted imidazole derivatives” (Hoffmann-La Roche Inc., priority 2003, dated 2007).
pKi: −log10 of the molar value.

What follows are compounds tested against T1, human mGlu 5a receptor (Homo sapiens, UniProt P41594) (assay: [3H]MPEP competition binding on membranes of EBNA cells transfected with human mGlu 5a receptor). Conditions: competition with [3H]MPEP (2 nM), 1 h at 4° C., membranes of transiently transfected EBNA cells; Ki=IC50/[1+L/Kd].
T1 construct: expressed in transfected cells; host or cells: EBNA cells (transient transfection); cell membrane homogenates
T1 sequence (P41594 21-1180 isoform P41594-2 limits assumed): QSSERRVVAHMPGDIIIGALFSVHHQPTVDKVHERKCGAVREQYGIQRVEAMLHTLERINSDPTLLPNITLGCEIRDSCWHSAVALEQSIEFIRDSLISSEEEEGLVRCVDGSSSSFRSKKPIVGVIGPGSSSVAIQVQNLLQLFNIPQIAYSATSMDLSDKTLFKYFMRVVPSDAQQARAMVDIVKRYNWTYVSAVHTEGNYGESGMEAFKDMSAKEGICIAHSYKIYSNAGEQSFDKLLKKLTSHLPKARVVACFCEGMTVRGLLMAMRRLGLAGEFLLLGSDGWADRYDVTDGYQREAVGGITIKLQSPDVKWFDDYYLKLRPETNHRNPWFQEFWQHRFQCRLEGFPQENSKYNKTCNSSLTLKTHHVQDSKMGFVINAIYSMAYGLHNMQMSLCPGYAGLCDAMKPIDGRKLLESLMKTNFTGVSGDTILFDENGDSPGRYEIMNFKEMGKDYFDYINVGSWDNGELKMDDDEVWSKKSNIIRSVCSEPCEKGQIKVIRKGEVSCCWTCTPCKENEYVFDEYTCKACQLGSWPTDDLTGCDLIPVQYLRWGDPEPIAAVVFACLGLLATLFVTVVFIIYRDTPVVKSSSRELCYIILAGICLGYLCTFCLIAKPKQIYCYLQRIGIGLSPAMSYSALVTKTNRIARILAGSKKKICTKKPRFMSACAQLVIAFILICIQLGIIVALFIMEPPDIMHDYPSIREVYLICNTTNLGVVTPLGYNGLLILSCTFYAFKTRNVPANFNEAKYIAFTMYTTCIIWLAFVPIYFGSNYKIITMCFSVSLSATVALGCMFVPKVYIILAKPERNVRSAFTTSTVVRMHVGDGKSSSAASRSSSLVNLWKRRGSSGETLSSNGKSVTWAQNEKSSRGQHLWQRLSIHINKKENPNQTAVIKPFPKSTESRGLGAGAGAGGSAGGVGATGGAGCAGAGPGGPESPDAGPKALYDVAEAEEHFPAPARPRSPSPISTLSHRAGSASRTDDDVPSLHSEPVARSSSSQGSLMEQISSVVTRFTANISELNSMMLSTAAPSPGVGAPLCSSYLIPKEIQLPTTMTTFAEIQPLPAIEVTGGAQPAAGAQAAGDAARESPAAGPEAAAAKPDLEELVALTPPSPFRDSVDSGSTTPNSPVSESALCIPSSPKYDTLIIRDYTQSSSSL
Method: For binding experiments, cDNA encoding human mGlu 5a receptor was transiently transfected into EBNA cells using a procedure described by Schlaeger and Christensen [Cytotechnology 15:1–13 (1998)]. Cell membrane homogenates were stored at −80° C. until the day of assay where upon they were thawed and resuspended and polytronised in 15 mM Tris-HCl, 120 mM NaCl, 100 mM KCl, 25 mM CaCl2, 25 mM MgCl2 binding buffer at pH 7.4 to a final assay concentration of 20 μg protein/well.
Saturation isotherms were determined by addition of twelve [^3H]MPEP concentrations (0.04–100 nM) to these membranes (in a total volume of 200 μl) for 1 h at 4° C. Competition experiments were performed with a fixed concentration of [^3H]MPEP (2 nM) and IC50 values of test compounds evaluated using 11 concentrations (0.3–10,000 nM). Incubations were performed for 1 h at 4° C.
At the end of the incubation, membranes were filtered onto unifilter (96-well white microplate with bonded GF/C filter preincubated 1 h in 0.1% PEI in wash buffer, Packard BioScience, Meriden, Conn.) with a Filtermate 96 harvester (Packard BioScience) and washed 3 times with cold 50 mM Tris-HCl, pH 7.4 buffer. Nonspecific binding was measured in the presence of 10 μM MPEP. The radioactivity on the filter was counted (3 min) on a Packard Top-count microplate scintillation counter with quenching correction after addition of 45 μl of microscint 40 (Can berra Packard S. A., Zürich, Switzerland) and shaking for 20 min. For functional assays, [Ca^2+]i measurements were performed as described previously by Porter et al. [Br. J. Pharmacol. 128:13–20 (1999)] on recombinant human mGlu 5a receptors in HEK-293 cells. The cells were dye loaded using Fluo 4-AM (obtainable by FLUKA, 0.2 μM final concentration). [Ca^2+]i measurements were performed using a fluorometric imaging plate reader (FLIPR, Molecular Devices Corporation, La Jolla, Calif., USA). Antagonist evaluation was performed following a 5 min preincubation with the test compounds followed by the addition of a submaximal addition of agonist.
The inhibition (antagonists) curves were fitted with a four parameter logistic equation giving IC50, and Hill coefficient using an iterative non linear curve fitting software (Xcel fit).
For binding experiments the Ki values of the compounds tested are given. The Ki value is defined by the following formula: Ki=IC50/[1+L/Kd] in which the IC50 values are those concentrations of the compounds tested which cause 50% inhibition of the competing radioligand ([^3H]MPEP). L is the concentration of radioligand used in the binding experiment and the Kd value of the radioligand is empirically determined for each batch of membranes prepared.

| Structure (SMILES) | pKi |
| --- | --- |
| Cc1nc(C#Cc2cccc(Cl)c2)cn1-c1nccc(C(F)(F)F)n1 [Example 2, 2-[4-(3-Chloro-phenylethynyl)-2-methyl-imidazol-1-yl]-4-trifluoromethyl-pyrimidine] | 7.55 |
| Cc1nc(C#Cc2cccc(Cl)c2)cn1-c1ccoc1 [Example 9, 4-(3-Chloro-phenylethynyl)-1-furan-3-yl-2-methyl-1H-imidazole] | 7.96 |
| COc1ccnc(-n2cc(C#Cc3cccc(C#N)c3)nc2C)n1 [Example 20, 3-[1-(4-Methoxy-pyrimidin-2-yl)-2-methyl-1H-imidazol-4-ylethynyl]-benzonitrile] | 7.96 |
| Cc1nc(C#Cc2cccc(C#N)c2)cn1-c1cnccn1 [Example 22, 3-(2-Methyl-1-pyrazin-2-yl-1H-imidazol-4-ylethynyl)-benzonitrile] | 7.22 |
| Cc1nc(C#Cc2cccc(C(F)(F)F)c2)cn1-c1ccc(Cl)nc1 [Example 33, 2-Chloro-5-[2-methyl-4-(3-trifluoromethyl-phenylethynyl)-imidazol-1-yl]-pyridine] | 7.18 |
| Cc1nc(C#Cc2cccc(C#N)c2)cn1-c1cncc(F)c1 [Example 35, 3-[1-(5-Fluoro-pyridin-3-yl)-2-methyl-1H-imidazol-4-ylethynyl]-benzonitrile] | 7.41 |
| Cc1nc(C#Cc2cccc(C#N)c2)cn1-c1cncc(N(C)C)c1 [Example 38, 3-[1-(5-Dimethylamino-pyridin-3-yl)-2-methyl-1H-imidazol-4-ylethynyl]-benzonitrile] | 7.00 |
| Cc1nc(C#Cc2cccc(Cl)c2)cn1-c1cccc(N2CCS(=O)(=O)CC2)n1 [Example 40, 4-{6-[4-(3-Chloro-phenylethynyl)-2-methyl-imidazol-1-yl]-pyridin-2-yl}-thiomorpholine-1,1-dioxide] | 7.17 |

Further compounds by rising pKi, results first:

| pKi | Structure (SMILES) |
| --- | --- |
| 6.80 | Cc1cc(-n2cc(C#Cc3cccc(Cl)c3)nc2C)cnn1 [Example 8, 5-[4-(3-Chloro-phenylethynyl)-2-methyl-imidazol-1-yl]-3-methyl-pyridazine] |
| 6.89 | Cc1nc(C#Cc2cccc(Cl)c2)cn1-c1ccc(N(C)C)nn1 [Example 27, {6-[4-(3-Chloro-phenylethynyl)-2-methyl-imidazol-1-yl]-pyridazin-3-yl}-dimethyl-amine] |
| 7.03 | COc1ccc(-n2cc(C#Cc3cccc(Cl)c3)nc2C)nn1 [Example 26, 3-[4-(3-Chloro-phenylethynyl)-2-methyl-imidazol-1-yl]-6-methoxy-pyridazine] |
| 7.06 | Cc1ccc(-n2cc(C#Cc3cccc(C(F)(F)F)c3)nc2C)nc1 [Example 31, 5-Methyl-2-[2-methyl-4-(3-trifluoromethyl-phenylethynyl)-imidazol-1-yl]-pyridine] |
| 7.20 | Cc1nc(C#Cc2cccc(Cl)c2)cn1-c1ncccn1 [Example 1, 2-[4-(3-Chloro-phenylethynyl)-2-methyl-imidazol-1-yl]-pyrimidine] |
| 7.49 | Cc1nc(C#Cc2cccc(Cl)c2)cn1-c1ccc(Cl)nn1 [Example 25, 3-Chloro-6-[4-(3-chloro-phenylethynyl)-2-methyl-imidazol-1-yl]-pyridazine] |
| 7.51 | Cc1cccc(-n2cc(C#Cc3cccc(C#N)c3)nc2C)n1 [Example 3, 3-[2-Methyl-1-(6-methyl-pyridin-2-yl)-1H-imidazol-4-ylethynyl]-benzonitrile] |
| 8.05 | Cc1nc(C#Cc2cccc(Cl)c2)cn1-c1cccc(N2CCSCC2)n1 [Example 39, 4-{6-[4-(3-Chloro-phenylethynyl)-2-methyl-imidazol-1-yl]-pyridin-2-yl}-thiomorpholine] |
